# Test results published in patent US20240207421A1, “NERVE TARGETING PEPTIDES AND METHODS OF USE” (ALUME BIOSCIENCES, INC., priority 2020, published 2024).
# How the values were obtained:
# [1] = test system: excised human nerve tissue (or nerve extracts); assay: Phage display library screening (Example 2), NEB tissue-binding peptides: nerve tissue and nerve extracts versus muscle; conditions: unique sequence count, peptides not binding muscle extracts; for Count Excised Nerve: tissue target: excised nerve; for Count Nerve Extract: tissue target: nerve extract; for Count Neuron: tissue target: neuron
# Description: (§1) Phage display library screens were used to identify peptides that bind to target proteins (including specific laminin trimers) that are expressed in human nerves, as described in Table 3. These screens were also carried out to identify peptides that could bind selectively to nerves versus muscle. Such peptides could therefore be useful for systemic in-vivo labeling of nerves during fluorescence assisted surgery. Specifically, m 13 phage libraries expressing 7 or 12 random amino acid peptides, or a cyclic peptide CX7C, on the N-terminus of the minor coat protein pIII (New England Biolabs; NEB) were processed through multiple rounds of selection for binding to target proteins expressed in nerves, or to excised human nerves, nerve extracts, or muscle, as described further below.
# To identify peptides selective for nerves versus muscle, phage from the same libraries used for specific target proteins were used to screen against excised human nerve tissue (or nerve extracts) and human muscle tissue.
# Excised Nerve Tissue: Phage were processed through multiple cycles of selection, with representative phage being isolated and sequenced after each selection cycle. Specifically, for selection using human nerve tissue, a sample of […] tissue (2 mm by 2 mm) was washed prior to mixing and incubation with a phage library. After incubation, the mixture (containing mostly intact nerves with phage particles that had variable affinity for nerves) was centrifuged and the nerve pellet washed multiple times with PBS to remove phage with little or no affinity for nerve tissue. The pellet was homogenized and plated for titering and reamplification. Phage that were bound at each round were sequenced. NextGen sequencing of pools after 2, 3 and 4 rounds of selection were used to isolate candidate sequences that were further analyzed using bioinformatics.
# Nerve Extracts: Phage libraries were incubated for up to 24 hours at 4° C. in 96 well plates that had been coated with a human nerve extract. Plates were then washed with PBS and phage were eluted using 0.2M glycine pH 2.0. Phage supernatants where then neutralized with Tris pH 9.0 prior to plating on TG1 bacteria and LB agar plates. Colonies were counted to determine titer followed by DNA preparation of pools of phage and NextGen sequencing. After rounds of selection, phage were pooled and amplified for iterative selection. Phage that eluted by 0.2M glycine pH 2.0 (the nerve binders) at each round were sequenced. NextGen sequencing of pools after 2, 3 and 4 rounds of selection were used to isolate candidate sequences that were further analyzed using bioinformatics.
# Muscle Tissue: Phage were processed through multiple cycles of selection, with representative phage being isolated and sequenced after each selection cycle. Specifically, for selection using human skeletal muscle tissue, a sample of skeletal muscle tissue (2 mm by 2 mm) was washed prior to mixing and incubation with a phage library. After incubation, the mixture (containing mostly intact muscle with phage particles that had variable affinity for muscle) was centrifuged and the muscle pellet washed multiple times with PBS to remove phage with little or no affinity for muscle tissue. The pellet was then homogenized and plated for titering and reamplification. Phage that were bound at each round were sequenced. NextGen sequencing of pools after 2, 3 and 4 rounds of selection were used to isolate candidate sequences that were further analyzed using bioinformatics.
# For all NEB sequence datasets, a python script was used to translate, trim, and filter the peptide sequences (see details above). A python script was used to group peptides from different assays according to tissue target (muscle, nerve, neuron, or nerve extract) and combine the unique sequence counts for each peptide. […]
# Laminin 421/521 = assay: Phage display library screening (Example 2), NEB laminin-binding peptides; parameters: species or system human; conditions: Laminin 421/521, not 211 and 411; combined unique sequence count, Python/R script analysis
# Description: as §1
# For screening against the specified target proteins in Table 1, including LN211, LN411, LN421, and LN521, the phage library was processed by up to 4 binding and wash cycles. For selection, phage libraries were incubated for up to 24 hours at 4° C. in 96 well plates that had been coated with one of the target proteins. Plates were then washed with PBS and phage were eluted using 0.2M glycine pH 2.0. Phage supernatants where then neutralized with Tris pH 9.0 prior to plating on TGI bacteria and LB agar plates. Colonies were counted to determine titer followed by DNA preparation of pools of phage and NextGen sequencing. After rounds of selection, phage were pooled and amplified for iterative selection. Phage that were bound at each round were sequenced. NextGen sequencing of pools after 2, 3 and 4 rounds of selection was used to isolate candidate sequences that were analyzed further to identify those that specifically bound each unique target protein.
# For all NEB sequence datasets, a python script was used to translate, trim, and filter the peptide sequences (see details above). A python script was used to group peptides from different assays according to laminin complex binding (laminin complex 211, 411, 421, or 521) and combine the unique sequence counts for each peptide. An R script was written to merge the peptide sequences from different data files and determine peptides that specifically bind one laminin complex and not the others, or that bind both laminin 421 and 521 but not 211 and 411.
Substance,Count Excised Nerve [1],Count Nerve Extract [1],Count Neuron [1],Count (Laminin 421/521)
SLQLWNSEKVTT,10,16,6,–
MLKMERPGRMAY,9,15,6,–
DVMQMFHQVHFY,10,17,7,–
TEWMVRASSIGE,6,14,8,–
NRIGHGTATGTL,22,28,6,–
RTVITNEMLLLV,7,13,6,–
WPLKRFEQLPLK,6,14,8,–
QSTLGVHMLRVS,6,13,7,–
KTTSMTALTMGL,9,21,12,–
WSGGMEDNSNRL,9,18,9,–
IPGQTPRMPHSK,8,21,13,–
YSANSNPKKSLM,11,17,6,–
VNYQTPWNKHWY,10,21,11,–
GWQMFPPMQNTR,10,50,40,–
YANGIEAKDSSR,14,20,6,–
QANLYYWDPSDL,8,17,9,–
GLLREPDELMFL,18,27,9,–
NYAVGDRITKNI,18,25,7,–
GLTIMSSRHSLQ,12,18,6,–
VTDMLGIPKLHA,18,28,10,–
QRATNDILIRGW,9,17,8,–
GWNEATNSARHT,26,32,6,–
AIMSYNSPWIQG,9,17,8,–

Substance,Count Excised Nerve [1],Count Nerve Extract [1],Count Neuron [1],Count (Laminin 421/521)
WDVAWLERRALH,23,43,20,–
GLWDGKGRIVEV,9,16,7,–
GTALNLQKDINK,6,12,6,–
SSLYMNGWSRDQ,23,49,26,–
SGWHLVMSMSIG,6,12,6,–
EESNAKLELLSR,12,26,14,–
EMVPMKFLMMAK,8,14,6,–
YAGQNGWMRSDL,28,45,17,–
ALNHNGPVKTGL,10,16,6,–
EPWQSRDKVIEE,8,16,8,–
QNIVENFIDNER,20,27,7,–
SLGSSFVQGGEL,12,19,7,–
NAVHRPDLNLLA,15,22,7,–
DASQYPLVSGLW,10,16,6,–
KFADTKLTSLRY (Laminin 421/521-binding peptide),–,–,–,28
WEEHRVEILPDV (Laminin 421/521-binding peptide),–,–,–,38
QPTPSQIKFTRT (Laminin 421/521-binding peptide),–,–,–,28
CTGETLLTC (Laminin 421/521-binding peptide),–,–,–,28
GRTIHSM (Laminin 421/521-binding peptide),–,–,–,95
CTKSPSNSC (Laminin 421/521-binding peptide),–,–,–,58
APKVTNARPTQL (Laminin 421/521-binding peptide),–,–,–,147
GGYDLPWANWQN (Laminin 421/521-binding peptide),–,–,–,497
NHDQGSLTRWRS (Laminin 421/521-binding peptide),–,–,–,31

Substance,Count Excised Nerve [1],Count Nerve Extract [1],Count Neuron [1],Count (Laminin 421/521)
TSAVSLR (Laminin 421/521-binding peptide),–,–,–,27
SFRNLEKLSLWS (Laminin 421/521-binding peptide),–,–,–,50
WAFKAPQ (Laminin 421/521-binding peptide),–,–,–,61
SYTATWSEMSRS (Laminin 421/521-binding peptide),–,–,–,28
EVERILTPHVNN (Laminin 421/521-binding peptide),–,–,–,29
ETGGLAYGSGQK (Laminin 421/521-binding peptide),–,–,–,28
YHLGPNQKMRTS (Laminin 421/521-binding peptide),–,–,–,48
RNLHYPLNHPFM (Laminin 421/521-binding peptide),–,–,–,30
KPILWNRSLNAL (Laminin 421/521-binding peptide),–,–,–,52
CTWKHRDNC (Laminin 421/521-binding peptide),–,–,–,30
CSSQAKRSC (Laminin 421/521-binding peptide),–,–,–,31
GWIQDTFVLGRS (Laminin 421/521-binding peptide),–,–,–,40
LPMLRHS (Laminin 421/521-binding peptide),–,–,–,32
CLQKNHKFC (Laminin 421/521-binding peptide),–,–,–,27
WPMMQTR (Laminin 421/521-binding peptide),–,–,–,29
NDTGRHASGISK (Laminin 421/521-binding peptide),–,–,–,32
GDVITAYINPWP (Laminin 421/521-binding peptide),–,–,–,39
NGHEVQSRAANR (Laminin 421/521-binding peptide),–,–,–,29
GHRTLVTSERYL (Laminin 421/521-binding peptide),–,–,–,38
GSPEKRT (Laminin 421/521-binding peptide),–,–,–,30
ASHSRPLMNYAP (Laminin 421/521-binding peptide),–,–,–,49
MTNSGAK (Laminin 421/521-binding peptide),–,–,–,35
GSLDMGNNKQPV (Laminin 421/521-binding peptide),–,–,–,62
